Experimental data: patent publication US20240108006A1, “PESTICIDALLY ACTIVE HETEROAROMATIC COMPOUNDS” (SYNGENTA CROP PROTECTION AG, priority 2021, published 2024)

What was measured:
Chilo suppressalis = assay: Example B1: Chilo suppressalis (striped rice stemborer), artificial diet, L2 larvae; assay type: in vivo; conditions: 144 h, application rate of 200 ppm, 6 days after infestation, read-out: control in at least one of the three categories (mortality, anti-feedant effect, or growth inhibition)
Experimental: Example B1: Chilo suppressalis (Striped Rice Stemborer)
24-well microtiter plates with artificial diet were treated with aqueous test solutions prepared from 10,000 ppm DMSO stock solutions by pipetting. After drying, the plates were infested with L2 larvae (6-8 per well). The samples were assessed for mortality, anti-feeding effect, and growth inhibition in comparison to untreated samples 6 days after infestation. Control of Chilo suppressalis by a test sample is given when at least one of the categories mortality, anti-feedant effect, and growth inhibition is higher than the untreated sample.

Plutella xylostella = assay: Example B8: Plutella xylostella (diamond back moth), artificial diet 24-well, eggs; assay type: in vivo; conditions: 192 h, application rate of 200 ppm, 8 days after infestation, read-out: effect in at least one of the two categories (mortality or growth inhibition)
Experimental: Example B8: Plutella xylostella (Diamond Back Moth)
24-well microtiter plates with artificial diet were treated with aqueous test solutions prepared from 10,000 ppm DMSO stock solutions by pipetting. After drying, Plutella eggs were pipetted through a plastic stencil onto a gel blotting paper and the plate was closed with it. The samples were assessed for mortality and growth inhibition in comparison to untreated samples 8 days after infestation.
The following compounds gave an effect of at least 80% in at least one of the two categories (mortality or growth inhibition) at an application rate of 200 ppm: […]

Compound | percent control (mortality, anti-feedant effect or growth inhibition) at 200 ppm (Chilo suppressalis) | percent effect (mortality or growth inhibition) at 200 ppm (Plutella xylostella)
C[C@@H](c1ncnn1-c1ncccn1)N(C)C(=O)N(C)c1cnc(C(F)(F)F)cc1Cl [Example P270, 1-[4-chloro-6-(trifluoromethyl)-3-pyridyl]-1,3-dimethyl-3-[(1S)-1-(2-pyrimidin-2-yl-1,2,4-triazol-3-yl)ethyl]urea] | ≥ 80% | ≥ 80%
C[C@H](NC(=O)Nc1ccc(Cl)cc1Oc1ccc(Cl)cc1)c1ncnn1-c1ncccn1 [Example P51, 1-[4-chloro-2-(4-chlorophenoxy)phenyl]-3-[(1S)-1-(2-pyrimidin-2-yl-1,2,4-triazol-3-yl)ethyl]urea] | ≥ 80% | ≥ 80%
C[C@H](NC(=O)Nc1ncc(C(F)(F)F)cc1Cl)c1ncnn1-c1ncccn1 [Example P25, 1-[3-chloro-5-(trifluoromethyl)-2-pyridyl]-3-[(1S)-1-(2-pyrimidin-2-yl-1,2,4-triazol-3-yl)ethyl]urea] | ≥ 80% | ≥ 80%
Cc1cc(Br)c(Cl)cc1NC(=O)N[C@@H](C)c1ncnn1-c1ncccn1 [Example P299, 1-(4-bromo-5-chloro-2-methyl-phenyl)-3-[(1S)-1-(2-pyrimidin-2-yl-1,2,4-triazol-3-yl)ethyl]urea] | ≥ 80% | ≥ 80%
COc1cc(NC(=O)N[C@@H](C)c2ncnn2-c2ncccn2)c(Br)cc1Br [Example P200, 1-(2,4-dibromo-5-methoxy-phenyl)-3-[(1S)-1-(2-pyrimidin-2-yl-1,2,4-triazol-3-yl)ethyl]urea] | ≥ 80% | ≥ 80%
C[C@H](NC(=O)N1CCc2ccc(C(F)(F)F)cc21)c1ncnn1-c1ncccn1 [Example P50, N-[(1S)-1-(2-pyrimidin-2-yl-1,2,4-triazol-3-yl)ethyl]-6-(trifluoromethyl)indoline-1-carboxamide] | ≥ 80% | ≥ 80%
C[C@H](NC(=O)Nc1cc(F)c(Cl)cc1I)c1ncnn1-c1ncccn1 [Example P376, 1-(4-chloro-5-fluoro-2-iodo-phenyl)-3-[(1S)-1-(2-pyrimidin-2-yl-1,2,4-triazol-3-yl)ethyl]urea] | ≥ 80% | ≥ 80%
CC(NC(=O)Nc1cc(C(F)(F)F)c(Cl)cc1Br)c1nccnc1-n1nccn1 (centres unmarked) [Example P260, 1-[2-bromo-4-chloro-5-(trifluoromethyl)phenyl]-3-[1-[3-(triazol-2-yl)pyrazin-2-yl]ethyl]urea] | ≥ 80% | ≥ 80%
C[C@H](NC(=O)Nc1ccccc1OC(F)F)c1ncnn1-c1ncccn1 [Example P107, 1-[2-(difluoromethoxy)phenyl]-3-[(1S)-1-(2-pyrimidin-2-yl-1,2,4-triazol-3-yl)ethyl]urea] | ≥ 80% | ≥ 80%
C[C@H](NC(=O)Nc1cc(C(F)(F)F)c(Cl)cc1Cl)c1ncnn1-c1ncc(C(=O)N(C)C)s1 [Example P170, 2-[5-[(1S)-1-[[2,4-dichloro-5-(trifluoromethyl)phenyl]carbamoyl-amino]ethyl]-1,2,4-triazol-1-yl]-N, N-dimethyl-thiazole-5-carboxamide] | ≥ 80% | ≥ 80%
C[C@H](NC(=O)Nc1cc(Cl)c(OC(F)(F)C(F)C(F)(F)F)cc1Cl)c1ncnn1-c1ncccn1 (stereo partly drawn) [Example P211, 1-[2,5-dichloro-4-(1,1,2,3,3,3-hexafluoropropoxy)phenyl]-3-[(1S)-1-(2-pyrimidin-2-yl-1,2,4-triazol-3-yl)ethyl]urea] |  | ≥ 80%
CC(NC(=O)N1CCc2cc(C(F)(F)F)ncc21)c1ncnn1-c1ccc(C#N)cn1 (centres unmarked) [Example P171, N-[1-[2-(5-cyano-2-pyridyl)-1,2,4-triazol-3-yl]ethyl]-5-(trifluoromethyl)-2,3-dihydropyrrolo[2,3-c]pyridine-1-carboxamide] |  | ≥ 80%
C[C@H](NC(=O)Nc1ccc(C(F)(F)F)c(Cl)c1)c1nccnc1-c1ccc(C#N)cn1 [Example P9, 1-[3-chloro-4-(trifluoromethyl)phenyl]-3-[(1S)-1-[3-(5-cyano-2-pyridyl)pyrazin-2-yl]ethyl]urea] | ≥ 80% | ≥ 80%
C[C@H](NC(=O)Nc1ccc(C(F)(F)F)c(Cl)c1)c1nccnc1-c1ncccn1 [Example P10, 1-[3-chloro-4-(trifluoromethyl)phenyl]-3-[(1S)-1-(3-pyrimidin-2-ylpyrazin-2-yl)ethyl]urea] | ≥ 80% | ≥ 80%
C[C@H](NC(=O)Nc1ccc(C(F)(F)F)c(Cl)c1)c1ncnn1-c1ncccn1 [Example P128, 1-[3-chloro-4-(trifluoromethyl)phenyl]-3-[(1S)-1-(2-pyrimidin-2-yl-1,2,4-triazol-3-yl)ethyl]urea] | ≥ 80% | ≥ 80%
C[C@H](NC(=O)Nc1cc(OCC#N)c(Cl)cc1Cl)c1ncnn1-c1ncccn1 [Example P161, 1-[2,4-dichloro-5-(cyanomethoxy)phenyl]-3-[(1S)-1-(2-pyrimidin-2-yl-1,2,4-triazol-3-yl)ethyl]urea] |  | ≥ 80%
COc1cc(Br)c(Cl)cc1NC(=O)N[C@@H](C)c1ncnn1-c1ncccn1 [Example P368, 1-(4-bromo-5-chloro-2-methoxy-phenyl)-3-[(1S)-1-(2-pyrimidin-2-yl-1,2,4-triazol-3-yl)ethyl]urea] |  | ≥ 80%
C[C@H](NC(=O)Nc1cc(OC(F)(F)C(F)F)c(Cl)cc1Cl)c1nccnc1-c1ccc(C#N)cn1 [Example P245, 1-[(1S)-1-[3-(5-cyano-2-pyridyl)pyrazin-2-yl]ethyl]-3-[2,4-dichloro-5-(1,1,2,2-tetrafluoroethoxy)phenyl]urea] | ≥ 80% | ≥ 80%
COc1cc(NC(=O)N[C@@H](C)c2ncnn2-c2ncccn2)c(F)cc1Br [Example P220, 1-(4-bromo-2-fluoro-5-methoxy-phenyl)-3-[(1S)-1-(2-pyrimidin-2-yl-1,2,4-triazol-3-yl)ethyl]urea] | ≥ 80% | ≥ 80%
CC(C)OC(=O)c1cc(NC(=O)N[C@@H](C)c2ncnn2-c2ncccn2)c(F)cc1Cl [Example P217, isopropyl 2-chloro-4-fluoro-5-[[(1S)-1-(2-pyrimidin-2-yl-1,2,4-triazol-3-yl)ethyl]carbamoylamino]benzoate] | ≥ 80% | ≥ 80%
C[C@H](NC(=O)Nc1c(Cl)cc(Cl)c(OC(F)(F)C(F)F)c1I)c1nccnc1-c1ccc(C#N)cn1 [Example P275, 1-[(1S)-1-[3-(5-cyano-2-pyridyl)pyrazin-2-yl]ethyl]-3-[4,6-dichloro-2-iodo-3-(1,1,2,2-tetrafluoroethoxy)phenyl]urea] | ≥ 80% | ≥ 80%
